Patent US10034861B2 (priority 2016, dated 2018)
pIC50: −log10 of the molar value. Where two headings read alike, the source gives them in different places.

How the values were obtained:
Format in all cases: biochemical
PDE1A = PDE1A (Homo sapiens (Human), UniProt P54750); experiment: biochemical
Description: (§1) Table 1 lists the IC50 value for inhibition of PDE1 by the compounds of the invention. […] PDE1 assays are described in the Experimental Section.

PDE1C = PDE1C (Homo sapiens (Human), UniProt Q14123); experiment: biochemical
Description: as §1

PDE1B = PDE1B (Homo sapiens (Human), UniProt Q01064); experiment: PDE1 inhibition assay (PDE1B); conditions: 15 nM tritium labelled cAMP, 1 hr at room temperature, SPA beads; for IC50: PDE1B, IC50 (nM); for pIC50: read-out: PDE1B, IC50
Description: as §1

[1] = 15 nM tritium labelled cAMP, 1 hr at room temperature, SPA beads

Chain of PDE1B (Q01064 whole entry): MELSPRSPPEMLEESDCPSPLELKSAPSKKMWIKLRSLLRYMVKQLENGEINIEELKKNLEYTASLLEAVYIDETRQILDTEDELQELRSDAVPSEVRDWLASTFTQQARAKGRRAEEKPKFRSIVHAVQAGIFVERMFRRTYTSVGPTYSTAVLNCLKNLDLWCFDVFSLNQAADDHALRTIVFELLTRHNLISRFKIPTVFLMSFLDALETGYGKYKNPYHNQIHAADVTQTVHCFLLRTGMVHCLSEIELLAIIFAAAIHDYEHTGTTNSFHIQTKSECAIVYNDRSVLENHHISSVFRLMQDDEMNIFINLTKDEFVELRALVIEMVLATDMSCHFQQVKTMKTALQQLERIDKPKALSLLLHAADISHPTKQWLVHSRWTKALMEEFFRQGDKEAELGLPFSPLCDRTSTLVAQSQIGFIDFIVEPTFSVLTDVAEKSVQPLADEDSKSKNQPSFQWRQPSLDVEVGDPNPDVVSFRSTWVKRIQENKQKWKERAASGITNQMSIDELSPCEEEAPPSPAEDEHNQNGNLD
Chain of PDE1C (Q14123 whole entry): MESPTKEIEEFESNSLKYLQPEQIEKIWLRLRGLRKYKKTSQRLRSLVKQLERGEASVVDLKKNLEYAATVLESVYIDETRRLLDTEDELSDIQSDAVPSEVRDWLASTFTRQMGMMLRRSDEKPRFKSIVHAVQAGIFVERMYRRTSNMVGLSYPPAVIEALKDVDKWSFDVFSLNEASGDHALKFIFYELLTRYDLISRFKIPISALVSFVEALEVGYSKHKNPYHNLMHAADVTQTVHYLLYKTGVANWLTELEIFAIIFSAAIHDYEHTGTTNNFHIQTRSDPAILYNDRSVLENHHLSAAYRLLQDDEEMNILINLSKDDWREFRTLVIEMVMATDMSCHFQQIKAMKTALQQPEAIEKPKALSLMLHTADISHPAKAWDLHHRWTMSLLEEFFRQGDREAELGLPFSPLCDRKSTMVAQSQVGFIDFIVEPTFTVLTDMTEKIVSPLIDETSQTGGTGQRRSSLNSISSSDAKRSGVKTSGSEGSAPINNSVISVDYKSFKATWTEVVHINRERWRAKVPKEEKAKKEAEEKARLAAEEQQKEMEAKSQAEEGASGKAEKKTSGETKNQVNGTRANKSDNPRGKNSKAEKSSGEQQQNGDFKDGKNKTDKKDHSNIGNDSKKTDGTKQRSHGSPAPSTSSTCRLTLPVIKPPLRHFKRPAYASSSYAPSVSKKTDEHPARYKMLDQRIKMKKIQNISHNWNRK
Chain of PDE1A (P54750 whole entry): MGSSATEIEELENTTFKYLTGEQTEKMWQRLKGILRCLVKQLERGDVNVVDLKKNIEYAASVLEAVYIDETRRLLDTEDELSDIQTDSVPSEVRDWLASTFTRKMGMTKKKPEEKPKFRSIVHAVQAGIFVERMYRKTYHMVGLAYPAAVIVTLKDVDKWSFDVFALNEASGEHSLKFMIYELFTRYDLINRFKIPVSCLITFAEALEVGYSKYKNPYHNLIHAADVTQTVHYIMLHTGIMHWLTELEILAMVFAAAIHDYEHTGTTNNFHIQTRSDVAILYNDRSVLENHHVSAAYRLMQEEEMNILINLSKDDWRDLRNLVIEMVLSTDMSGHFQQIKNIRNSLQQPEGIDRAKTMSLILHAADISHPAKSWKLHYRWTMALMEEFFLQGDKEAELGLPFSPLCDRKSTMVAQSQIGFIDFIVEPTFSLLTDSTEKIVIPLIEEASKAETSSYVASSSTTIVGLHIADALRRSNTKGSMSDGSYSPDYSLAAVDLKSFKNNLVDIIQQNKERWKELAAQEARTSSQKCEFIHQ

Compound CCOc1ncccc1-c1cc(NCc2cc[nH]n2)c2c(cnn2C(C)CC)n1 (single isomer, unassigned) [Example 136, 5-(2-ethoxy-3-pyridyl)-1-[1-methylpropyl]-N-(1H-pyrazol-3-ylmethyl)pyrazolo[4,3-b]pyridin-7-amine] has a pIC50 (PDE1A; [1]) of 7.21, a pIC50 (PDE1C) of 7.00 and an IC50 (PDE1B) of 3.2 nM.

CCOc1ncccc1-c1cc(NCc2ncn(C)n2)c2c(n1)c(C)nn2C1COC1 [Example 163, 5-(2-ethoxy-3-pyridyl)-3-methyl-N-[(1-methyl-1,2,4-triazol-3-yl)methyl]-1-(oxetan-3-yl)pyrazolo[4,3-b]pyridin-7-amine] was tested, and the pIC50 (PDE1A; [1]) was 6.92, the pIC50 (PDE1C; [1]) was 6.92 and the pIC50 (PDE1B) was 7.85.

For CCOc1ncccc1-c1cc(NCc2ccn(C)n2)c2c(n1)c(C)nn2C(C)CC (single isomer, unassigned) [Example 67, 5-(2-ethoxy-3-pyridyl)-3-methyl-1-[1-methylpropyl]-N-[(1-methylpyrazol-3-yl)methyl]pyrazolo[4,3-b]pyridin-7-amine], the pIC50 (PDE1A; [1]) was 8.02, the pIC50 (PDE1C; [1]) was 7.57 and the IC50 (PDE1B) was 0.64 nM.

CCOc1ncccc1-c1cc(NCc2c[nH]cn2)c2c(n1)c(C)nn2C(C)C [Example 40, 5-(2-ethoxy-3-pyridyl)-N-(1H-imidazol-4-ylmethyl)-1-isopropyl-3-methyl-pyrazolo[4,3-b]pyridin-7-amine] showed a pIC50 (PDE1A; [1]) of 7.85, a pIC50 (PDE1C; [1]) of 7.49 and a pIC50 (PDE1B) of 9.00.

For CCOc1ncccc1-c1cc(NCc2nnc(C)o2)c2c(n1)c(C)nn2C(C)C [Example 1, 5-(2-ethoxypyridin-3-yl)-1-isopropyl-3-methyl-N-((5-methyl-1,3,4-oxadiazol-2-yl)methyl)-1H-pyrazolo[4,3-b]pyridin-7-amine], the pIC50 (PDE1A; [1]) was 7.74, the pIC50 (PDE1C; [1]) was 7.40 and the pIC50 (PDE1B) was 8.80.

With CCOc1ncccc1-c1cc(NCc2nc(C)no2)c2c(n1)c(C)nn2C(C)C [Example 30, 5-(2-ethoxy-3-pyridyl)-1-isopropyl-3-methyl-N-[(3-methyl-1,2,4-oxadiazol-5-yl)methyl]pyrazolo[4,3-b]pyridin-7-amine] the pIC50 (PDE1A; [1]) was 7.82, the pIC50 (PDE1C; [1]) was 7.51 and the pIC50 (PDE1B) was 8.89.

In the case of CCOc1ncccc1-c1cc(NCc2ccnc(OC)c2)c2c(n1)c(C)nn2C(C)C [Example 104, 5-(2-ethoxy-3-pyridyl)-1-isopropyl-N-[(2-methoxy-4-pyridyl)methyl]-3-methyl-pyrazolo[4,3-b]pyridin-7-amine], the pIC50 (PDE1A; [1]) was 8.66, the pIC50 (PDE1C; [1]) was 8.20 and the pIC50 (PDE1B) was 9.80.

Compound CCOc1ncccc1-c1cc(NCc2cn(C)nn2)c2c(n1)c(C)nn2C(C)C [Example 6, 5-(2-ethoxy-3-pyridyl)-1-isopropyl-3-methyl-N-[(1-methyltriazol-4-yl)methyl]pyrazolo[4,3-b]pyridin-7-amine] has a pIC50 (PDE1A; [1]) of 8.32, a pIC50 (PDE1C; [1]) of 8.25 and a pIC50 (PDE1B) of 9.66.

In the case of CCCOc1ncccc1-c1cc(NCc2cn(C)cn2)c2c(n1)c(C)nn2C(C)C [Example 142, 1-isopropyl-3-methyl-N-[(1-methylimidazol-4-yl)methyl]-5-(2-propoxy-3-pyridyl)pyrazolo[4,3-b]pyridin-7-amine], the pIC50 (PDE1A; [1]) was 9.59, the pIC50 (PDE1C; [1]) was 9.10 and the pIC50 (PDE1B) was 10.00.

CCOc1ncccc1-c1cc(NCc2cccnc2C(F)F)c2c(n1)c(C)nn2C(C)C [Example 178, N-[[2-(difluoromethyl)-3-pyridyl]methyl]-5-(2-ethoxy-3-pyridyl)-1-isopropyl-3-methyl-pyrazolo[4,3-b]pyridin-7-amine] gave a pIC50 (PDE1A; [1]) of 7.51, a pIC50 (PDE1C; [1]) of 7.20 and a pIC50 (PDE1B) of 8.49.

CCOc1ncccc1-c1cc(NCc2cnccc2OC)c2c(n1)c(C)nn2C(C)C [Example 92, 5-(2-ethoxy-3-pyridyl)-1-isopropyl-N-[(4-methoxy-3-pyridyl)methyl]-3-methyl-pyrazolo[4,3-b]pyridin-7-amine] showed a pIC50 (PDE1A; [1]) of 7.33, a pIC50 (PDE1C; [1]) of 6.96 and a pIC50 (PDE1B) of 8.57.

Work on CCOc1ncccc1-c1cc(CCc2cncc(OC)c2)c2c(n1)c(C)nn2C(C)C [Example 159, 5-(2-ethoxy-3-pyridyl)-1-isopropyl-7-[2-(5-methoxy-3-pyridyl)ethyl]-3-methyl-pyrazolo[4,3-b]pyridine] yielded a pIC50 (PDE1A; [1]) of 6.57, a pIC50 (PDE1C; [1]) of 5.80 and a pIC50 (PDE1B) of 7.15.

In the case of [2H]C([2H])(C)Oc1ncccc1-c1cc(NCc2cccnc2OC)c2c(n1)c(C)nn2C(C)C [Example 180, 5-(2-(ethoxy-1,1-d2)pyridin-3-yl)-1-isopropyl-N-((2-methoxypyridin-3-yl)methyl)-3-methyl-1H-pyrazolo[4,3-b]pyridin-7-amine], the pIC50 (PDE1A) was 7.57, the pIC50 (PDE1C) was 7.11 and the IC50 (PDE1B) was 0.77 nM.

Compound CCCOc1ncccc1-c1cc(NCc2ncn(C)n2)c2c(n1)c(C)nn2C(C)C [Example 145, 1-isopropyl-3-methyl-N-[(1-methyl-1,2,4-triazol-3-yl)methyl]-5-(2-propoxy-3-pyridyl)pyrazolo[4,3-b]pyridin-7-amine] has a pIC50 (PDE1A; [1]) of 9.39, a pIC50 (PDE1C; [1]) of 8.92 and a pIC50 (PDE1B) of 10.02.

For CCOc1ncccc1-c1cc(NCc2cnc(C)s2)c2c(n1)c(C)nn2C(C)C [Example 32, 5-(2-ethoxy-3-pyridyl)-1-isopropyl-3-methyl-N-[(2-methylthiazol-5-yl)methyl]pyrazolo[4,3-b]pyridin-7-amine], the pIC50 (PDE1A; [1]) was 8.34, the pIC50 (PDE1C; [1]) was 8.21 and the pIC50 (PDE1B) was 9.85.

Work on CCOc1ncccc1-c1cc(NCc2cccn(C)c2=O)c2c(n1)c(C)nn2C(C)C [Example 108, 3-[[[5-(2-ethoxy-3-pyridyl)-1-isopropyl-3-methyl-pyrazolo[4,3-b]pyridin-7-yl]amino]methyl]-1-methyl-pyridin-2-one] yielded a pIC50 (PDE1A; [1]) of 8.55, a pIC50 (PDE1C; [1]) of 7.92 and a pIC50 (PDE1B) of 9.44.

CCOc1ncccc1-c1cc(NCc2cc(OC)ncn2)c2c(n1)c(C)nn2C(C)C [Example 179, 5-(2-ethoxy-3-pyridyl)-1-isopropyl-N-[(6-methoxypyrimidin-4-yl)methyl]-3-methyl-pyrazolo[4,3-b]pyridin-7-amine] showed a pIC50 (PDE1A; [1]) of 8.55, a pIC50 (PDE1C; [1]) of 8.15 and a pIC50 (PDE1B) of 9.29.

Compound CCOc1ncccc1-c1cc(NCc2ncn(C)n2)c2c(cnn2C(C)C)n1 [Example 56, 5-(2-ethoxy-3-pyridyl)-1-isopropyl-N-[(1-methyl-1,2,4-triazol-3-yl)methyl]pyrazolo[4,3-b]pyridin-7-amine] has a pIC50 (PDE1A; [1]) of 7.80, a pIC50 (PDE1C; [1]) of 7.35 and a pIC50 (PDE1B) of 9.00.

Work on COc1ncccc1-c1cc(NCc2cccnc2C(F)(F)F)c2c(n1)c(C)nn2C(C)C [Example 170, 1-isopropyl-5-(2-methoxy-3-pyridyl)-3-methyl-N-[[2-(trifluoromethyl)-3-pyridyl]methyl]pyrazolo[4,3-b]pyridin-7-amine] yielded a pIC50 (PDE1A; [1]) of 7.38, a pIC50 (PDE1C; [1]) of 7.34 and a pIC50 (PDE1B) of 8.28.

COc1ncccc1CNc1cc(-c2cccnc2OC2CC2)nc2c(C)nn(C(C)C)c12 [Example 174, 5-(2-cyclopropoxypyridin-3-yl)-1-isopropyl-N-((2-methoxypyridin-3-yl)methyl)-3-methyl-1H-pyrazolo[4,3-b]pyridin-7-amine] gave a pIC50 (PDE1A; [1]) of 7.74, a pIC50 (PDE1C; [1]) of 7.28 and a pIC50 (PDE1B) of 8.82.

In the case of Cc1nn(C(C)C)c2c(NCc3cnn(C)c3)cc(-c3cnn(C)c3C)nc12 [Example 66, 5-(1,5-dimethylpyrazol-4-yl)-1-isopropyl-3-methyl-N-[(1-methylpyrazol-4-yl)methyl]pyrazolo[4,3-b]pyridin-7-amine], the pIC50 (PDE1A; [1]) was 6.68, the pIC50 (PDE1C; [1]) was 6.66 and the pIC50 (PDE1B) was 7.23.
